Values quoted from earlier work, collected in article PMC3807243 (Biochemical pharmacology, 2012).
Where two headings read alike, the source gives them in different places.

Tested on: EphB4
Settings: ref [38]–[40]

Row | Sequence | IC50 (read-out: IC50 for inhibition of EphB4 binding) | Binding affinity for EphB4 | IC50 (read-out: IC50 for inhibition of ephrin-B2 binding to EphB4)
1 | TNYLFSPNGPIARAW [TNYL-RAW] | ~0.015 µM | low nanomolar | –
2 | TNYLFSPNGPIA | – | – | ~150 µM
